Experiment [1] is described as follows: Inhibitory concentration against Nicotinic acetylcholine receptor alpha2-beta4 expressed in xenopus oocytes. To be noted: oocyte. It counts as cell-based.
Experiment [2] has as its target T1, Neuronal acetylcholine receptor; alpha3/beta2 (Homo sapiens, UniProt P17787+P32297). Briefly: Inhibitory concentration against Nicotinic acetylcholine receptor alpha3-beta2 expressed in xenopus oocytes. Type of experiment: cell-based, Oocyte.
Experiment [3] can be described thus: Inhibitory concentration against Nicotinic acetylcholine receptor alpha3-beta4 expressed in xenopus oocytes. Type of experiment: cell-based. The settings on record: oocyte.
The target of experiment [4] is T2, Neuronal acetylcholine receptor; alpha2/beta4 (Homo sapiens, UniProt P30926+Q15822). Briefly: Inhibitory concentration against Nicotinic acetylcholine receptor alpha2-beta4. Type of experiment: protein-complex assay.
T2 sequence (P30926 whole entry): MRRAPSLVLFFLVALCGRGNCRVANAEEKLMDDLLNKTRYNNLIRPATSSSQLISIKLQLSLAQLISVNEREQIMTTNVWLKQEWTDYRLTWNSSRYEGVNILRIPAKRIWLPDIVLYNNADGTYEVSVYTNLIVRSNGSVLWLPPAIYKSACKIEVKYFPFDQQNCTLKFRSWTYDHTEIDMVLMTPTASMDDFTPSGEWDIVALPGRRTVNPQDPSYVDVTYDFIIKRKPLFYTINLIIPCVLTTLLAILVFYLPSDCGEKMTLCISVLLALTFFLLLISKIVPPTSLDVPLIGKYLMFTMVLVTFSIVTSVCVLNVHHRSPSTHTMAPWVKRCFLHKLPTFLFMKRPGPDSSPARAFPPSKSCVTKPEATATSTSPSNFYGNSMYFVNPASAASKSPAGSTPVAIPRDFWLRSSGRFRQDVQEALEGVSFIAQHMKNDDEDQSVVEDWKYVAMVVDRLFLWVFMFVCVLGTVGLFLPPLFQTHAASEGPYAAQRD
T2 sequence (Q15822 whole entry): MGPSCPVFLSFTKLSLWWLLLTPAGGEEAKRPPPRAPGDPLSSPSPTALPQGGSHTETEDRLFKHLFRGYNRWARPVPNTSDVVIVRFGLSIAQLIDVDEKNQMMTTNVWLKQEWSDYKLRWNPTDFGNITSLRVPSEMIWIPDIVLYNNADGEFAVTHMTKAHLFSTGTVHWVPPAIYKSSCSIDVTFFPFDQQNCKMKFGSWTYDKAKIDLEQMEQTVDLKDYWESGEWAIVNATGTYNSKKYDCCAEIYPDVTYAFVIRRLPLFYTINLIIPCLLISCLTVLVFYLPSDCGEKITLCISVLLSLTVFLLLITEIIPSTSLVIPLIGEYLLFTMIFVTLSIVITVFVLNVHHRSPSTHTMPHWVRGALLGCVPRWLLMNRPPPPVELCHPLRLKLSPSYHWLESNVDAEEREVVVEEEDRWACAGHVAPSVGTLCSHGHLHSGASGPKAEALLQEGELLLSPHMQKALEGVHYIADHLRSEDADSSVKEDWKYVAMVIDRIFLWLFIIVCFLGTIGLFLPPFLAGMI
The target in experiment [5] is T1, Neuronal acetylcholine receptor; alpha3/beta2. As to the kind of experiment: Inhibitory concentration against Nicotinic acetylcholine receptor alpha3-beta2. Type of experiment: protein-complex assay.
The target of experiment [6] is T3, Neuronal acetylcholine receptor; alpha3/beta4 (Homo sapiens, UniProt P30926+P32297). As to the kind of experiment: Inhibitory concentration against Nicotinic acetylcholine receptor alpha3-beta4. Type of experiment: protein-complex assay.
T3 sequence (P30926 whole entry): as the sequence (P30926 whole entry) above
T3 sequence (P32297 whole entry): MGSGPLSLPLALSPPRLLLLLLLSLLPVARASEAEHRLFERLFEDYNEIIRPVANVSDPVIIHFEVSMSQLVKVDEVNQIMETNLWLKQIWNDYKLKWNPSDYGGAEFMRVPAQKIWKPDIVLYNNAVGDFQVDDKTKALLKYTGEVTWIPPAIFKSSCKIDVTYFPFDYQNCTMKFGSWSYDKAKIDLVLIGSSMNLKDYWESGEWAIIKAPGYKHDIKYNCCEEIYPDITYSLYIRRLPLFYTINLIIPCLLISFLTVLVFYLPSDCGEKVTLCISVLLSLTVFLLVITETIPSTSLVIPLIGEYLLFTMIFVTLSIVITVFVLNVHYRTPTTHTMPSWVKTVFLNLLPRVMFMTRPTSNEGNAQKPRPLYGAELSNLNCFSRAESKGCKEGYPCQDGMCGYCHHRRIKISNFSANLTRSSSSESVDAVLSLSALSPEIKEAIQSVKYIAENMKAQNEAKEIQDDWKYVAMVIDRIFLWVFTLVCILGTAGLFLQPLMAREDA
Experiment [7] addresses T4, Neuronal acetylcholine receptor subunit alpha-7 (Homo sapiens, UniProt P36544). Briefly: Inhibitory concentration against Nicotinic acetylcholine receptor alpha-7 expressed in xenopus oocytes. Type of experiment: cell-based. To be noted: xenopus oocyte.
Experiment [8] has as its target T5, Neuronal acetylcholine receptor; alpha4/beta2 (Homo sapiens, UniProt P17787+P43681). As to the kind of experiment: Ki or IC50 concentration against Nicotinic acetylcholine receptor alpha4-beta2 expressed in xenopus oocytes. The settings on record: Oocyte. It counts as cell-based.
Experiment [9] addresses T6, Neuronal acetylcholine receptor; alpha4/beta4 (Homo sapiens, UniProt P30926+P43681). As to the kind of experiment: Ki or IC50 concentration against Nicotinic acetylcholine receptor alpha4-beta4 expressed in xenopus oocytes. Type of experiment: cell-based. The settings on record: Oocyte.
For experiment [10], the target named is T4, Neuronal acetylcholine receptor subunit alpha-7. Briefly: Inhibitory concentration against Nicotinic acetylcholine receptor alpha 7.
The target of experiment [11] is T5, Neuronal acetylcholine receptor; alpha4/beta2. Briefly: Inhibitory concentration against Nicotinic acetylcholine receptor alpha4-beta2. Type of experiment: protein-complex assay.
Experiment [12] deals with T2, Neuronal acetylcholine receptor; alpha2/beta4. As to the kind of experiment: Maximal response against Nicotinic acetylcholine receptor alpha2-beta4. Type of experiment: protein-complex assay.
The target of experiment [13] is T3, Neuronal acetylcholine receptor; alpha3/beta4. Briefly: Maximal response against Nicotinic acetylcholine receptor alpha3-beta4. It counts as protein-complex assay.
Experiment [14] has as its target T5, Neuronal acetylcholine receptor; alpha4/beta2. As to the kind of experiment: Maximal response against Nicotinic acetylcholine receptor alpha4-beta2. It counts as protein-complex assay.
Experiment [15] concerns the target T6, Neuronal acetylcholine receptor; alpha4/beta4. As to the kind of experiment: Maximal response against Nicotinic acetylcholine receptor alpha4-beta4. It counts as protein-complex assay.
Experiment [16] deals with T4, Neuronal acetylcholine receptor subunit alpha-7. As to the kind of experiment: Effective concentration against Nicotinic acetylcholine receptor alpha 7.
Experiment [17] has as its target T2, Neuronal acetylcholine receptor; alpha2/beta4. As to the kind of experiment: Effective concentration against Nicotinic acetylcholine receptor alpha2-beta4. Type of experiment: protein-complex assay.
The target in experiment [18] is T1, Neuronal acetylcholine receptor; alpha3/beta2. As to the kind of experiment: Effective concentration against Nicotinic acetylcholine receptor alpha3-beta2. It counts as protein-complex assay.
Experiment [19] addresses T3, Neuronal acetylcholine receptor; alpha3/beta4. As to the kind of experiment: Effective concentration against Nicotinic acetylcholine receptor alpha3-beta4. It counts as protein-complex assay.
Experiment [20] concerns the target T5, Neuronal acetylcholine receptor; alpha4/beta2. Briefly: Effective concentration against Nicotinic acetylcholine receptor alpha4-beta2. Type of experiment: protein-complex assay.
Experiment [21] concerns the target T6, Neuronal acetylcholine receptor; alpha4/beta4. Briefly: Effective concentration against Nicotinic acetylcholine receptor alpha4-beta4. It counts as protein-complex assay.
The target of experiment [22] is Neuronal acetylcholine receptor subunit alpha-3 (Homo sapiens) (UniProt P32297). As to the kind of experiment: Maximal response against [Ca2+] permeability and [Ca2+] modulation of alpha-3 nicotinic receptor.
Chain of Neuronal acetylcholine receptor subunit alpha-3 (Homo sapiens) (P32297 whole entry): as above
Experiment [23] concerns the target T4, Neuronal acetylcholine receptor subunit alpha-7. Briefly: (§1) Maximal response against Nicotinic acetylcholine receptor alpha 7.
Experiment [24] concerns the target T1, Neuronal acetylcholine receptor; alpha3/beta2. As to the kind of experiment: Maximal response against Nicotinic acetylcholine receptor alpha3-beta2 expressed in HEK293 cells. Type of experiment: cell-based.
The target of experiment [25] is T3, Neuronal acetylcholine receptor; alpha3/beta4. As to the kind of experiment: Maximal response against Nicotinic acetylcholine receptor alpha3-beta4 expressed in HEK293 cells. It counts as cell-based.
Experiment [26] deals with T5, Neuronal acetylcholine receptor; alpha4/beta2. Briefly: Maximal response against Nicotinic acetylcholine receptor alpha4-beta2 expressed in HEK293 cells. Type of experiment: cell-based.
Experiment [27] in a line: Effective concentration against Nicotinic acetylcholine receptor alpha4-beta2 expressed in xenopus oocytes. It counts as cell-based. To be noted: oocyte.
Experiment [28] is described as follows: Effective concentration against Nicotinic acetylcholine receptor alpha2-beta4 expressed in xenopus oocytes. Type of experiment: cell-based. To be noted: oocyte.
A short description of experiment [29]: Effective concentration against Nicotinic acetylcholine receptor alpha3-beta4 expressed in xenopus oocytes. Type of experiment: cell-based. To be noted: oocyte.
The nature of experiment [30]: Effective concentration against Nicotinic acetylcholine receptor alpha4-beta4 expressed in xenopus oocytes. To be noted: oocyte. It counts as cell-based.
Experiment [31] deals with T1, Neuronal acetylcholine receptor; alpha3/beta2. Briefly: Maximal response against Nicotinic acetylcholine receptor alpha3-beta2. It counts as protein-complex assay.
The target in experiment [32] is Neuronal acetylcholine receptor subunit alpha-7 (Rattus norvegicus) (UniProt Q05941). The description is as §1.
Chain of Neuronal acetylcholine receptor subunit alpha-7 (Rattus norvegicus) (Q05941 whole entry): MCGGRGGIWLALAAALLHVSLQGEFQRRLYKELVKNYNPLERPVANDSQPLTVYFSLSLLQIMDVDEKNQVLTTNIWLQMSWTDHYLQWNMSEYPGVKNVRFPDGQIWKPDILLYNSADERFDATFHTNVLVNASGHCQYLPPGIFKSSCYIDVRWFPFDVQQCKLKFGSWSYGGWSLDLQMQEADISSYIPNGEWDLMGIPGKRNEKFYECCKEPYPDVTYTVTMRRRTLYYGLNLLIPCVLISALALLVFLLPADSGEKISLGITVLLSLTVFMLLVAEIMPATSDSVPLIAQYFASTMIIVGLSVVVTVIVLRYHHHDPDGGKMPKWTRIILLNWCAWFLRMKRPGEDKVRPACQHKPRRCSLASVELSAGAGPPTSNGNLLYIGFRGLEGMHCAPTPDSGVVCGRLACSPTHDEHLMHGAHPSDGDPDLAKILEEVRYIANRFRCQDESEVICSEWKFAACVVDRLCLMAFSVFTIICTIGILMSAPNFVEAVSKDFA
Experiment [33] addresses T3, Neuronal acetylcholine receptor; alpha3/beta4. As to the kind of experiment: Maximal response against Nicotinic acetylcholine receptor alpha3-beta4 in [Ca2+] permeability and [Ca2+] modulation. It counts as protein-complex assay.
Experiment [34] has as its target T4, Neuronal acetylcholine receptor subunit alpha-7. As to the kind of experiment: Effective concentration against Nicotinic acetylcholine receptor alpha 7 expressed in xenopus oocytes. Type of experiment: cell-based, Xenopus laevis, Oocyte.
Experiment [35] addresses T1, Neuronal acetylcholine receptor; alpha3/beta2. Briefly: Maximal response against Nicotinic acetylcholine receptor alpha3-beta2 in [Ca2+] permeability and [Ca2+] modulation. It counts as functional.
Experiment [36] shares this target. Briefly: Effective concentration against Nicotinic acetylcholine receptor alpha3-beta2 expressed in xenopus oocytes. It counts as cell-based, Oocyte.
The target is the same in experiment [37]. As to the kind of experiment: Inhibitory concentration against Nicotinic acetylcholine receptor alpha3-beta2; Range is 3-5 nM. Type of experiment: protein-complex assay.
Experiment [38] deals with T3, Neuronal acetylcholine receptor; alpha3/beta4. Briefly: Inhibitory concentration against Nicotinic acetylcholine receptor alpha3-beta4; Range is 3-5 nM. It counts as protein-complex assay.
Experiment [39] concerns the target T5, Neuronal acetylcholine receptor; alpha4/beta2. As to the kind of experiment: Inhibitory concentration against Nicotinic acetylcholine receptor alpha4-beta2; Range is 3-5 nM. It counts as protein-complex assay.
In experiment [40] the target is T6, Neuronal acetylcholine receptor; alpha4/beta4. Briefly: Inhibitory concentration against Nicotinic acetylcholine receptor alpha4-beta4; Range is 3-5 nM. It counts as protein-complex assay.
Experiment [41] deals with T4, Neuronal acetylcholine receptor subunit alpha-7. Briefly: Inhibitory concentration against Nicotinic acetylcholine receptor alpha-7 Range is 3-5 nM.

Several values for one entry are separate records, joined by “and”; a condition that tells them apart may be missing. Identical values can stand only once. Square brackets hold non-standard residues; d marks the D form. Peptide text beside a SMILES is read from it. Hyp = O=C(O)[C@@H]1C[C@@H](O)CN1 A value given as a limit tells only on which side of the number the result lay.

T4 sequence (P36544 whole entry): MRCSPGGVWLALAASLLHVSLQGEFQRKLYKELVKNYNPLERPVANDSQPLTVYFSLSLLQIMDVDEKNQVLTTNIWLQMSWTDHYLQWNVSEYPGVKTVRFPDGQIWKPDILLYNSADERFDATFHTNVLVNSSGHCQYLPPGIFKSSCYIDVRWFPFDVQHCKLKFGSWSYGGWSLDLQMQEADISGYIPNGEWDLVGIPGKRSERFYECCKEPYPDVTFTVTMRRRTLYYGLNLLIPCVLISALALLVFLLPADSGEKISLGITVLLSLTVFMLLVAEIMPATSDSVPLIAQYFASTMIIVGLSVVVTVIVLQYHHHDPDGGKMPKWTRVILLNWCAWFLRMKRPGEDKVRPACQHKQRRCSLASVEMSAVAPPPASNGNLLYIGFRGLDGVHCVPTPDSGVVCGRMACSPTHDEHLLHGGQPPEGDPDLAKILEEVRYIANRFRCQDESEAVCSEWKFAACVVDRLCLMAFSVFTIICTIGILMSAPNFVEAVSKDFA
T1 sequence (P17787 whole entry): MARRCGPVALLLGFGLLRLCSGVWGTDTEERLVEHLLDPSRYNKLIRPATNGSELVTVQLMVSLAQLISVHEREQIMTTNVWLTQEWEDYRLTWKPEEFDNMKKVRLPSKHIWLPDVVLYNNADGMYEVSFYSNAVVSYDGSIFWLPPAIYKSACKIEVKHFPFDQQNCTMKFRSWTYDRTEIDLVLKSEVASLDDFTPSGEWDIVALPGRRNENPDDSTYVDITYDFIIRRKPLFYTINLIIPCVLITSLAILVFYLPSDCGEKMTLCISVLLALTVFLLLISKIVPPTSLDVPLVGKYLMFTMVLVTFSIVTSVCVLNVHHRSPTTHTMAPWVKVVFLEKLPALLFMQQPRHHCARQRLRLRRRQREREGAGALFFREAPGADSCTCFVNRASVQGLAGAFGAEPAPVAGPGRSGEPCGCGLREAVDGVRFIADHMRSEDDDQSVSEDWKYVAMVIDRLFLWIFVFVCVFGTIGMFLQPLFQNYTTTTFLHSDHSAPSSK
T1 sequence (P32297 whole entry): as the sequence (P32297 whole entry) above
T5 sequence (P17787 whole entry): as the sequence (P17787 whole entry) above
T5 sequence (P43681 whole entry): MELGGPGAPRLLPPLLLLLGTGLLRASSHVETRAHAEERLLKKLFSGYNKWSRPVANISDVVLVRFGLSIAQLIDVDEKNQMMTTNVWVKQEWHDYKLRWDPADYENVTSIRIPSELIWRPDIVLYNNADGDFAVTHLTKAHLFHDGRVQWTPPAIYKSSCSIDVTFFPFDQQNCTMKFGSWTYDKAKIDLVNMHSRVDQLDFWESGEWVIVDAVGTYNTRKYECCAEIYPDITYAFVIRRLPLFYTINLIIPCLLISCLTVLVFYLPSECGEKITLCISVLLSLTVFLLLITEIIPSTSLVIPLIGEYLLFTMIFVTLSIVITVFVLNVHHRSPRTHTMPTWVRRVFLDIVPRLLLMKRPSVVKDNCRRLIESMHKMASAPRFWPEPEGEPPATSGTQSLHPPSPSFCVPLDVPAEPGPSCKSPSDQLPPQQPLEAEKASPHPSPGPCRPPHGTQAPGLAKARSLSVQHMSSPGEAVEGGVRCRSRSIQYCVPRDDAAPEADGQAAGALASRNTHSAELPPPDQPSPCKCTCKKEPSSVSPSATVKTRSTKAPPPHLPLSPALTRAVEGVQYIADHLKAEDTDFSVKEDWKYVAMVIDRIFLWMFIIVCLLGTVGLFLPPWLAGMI
T6 sequence (P30926 whole entry): as the sequence (P30926 whole entry) above
T6 sequence (P43681 whole entry): as the sequence (P43681 whole entry) above

Usually IC50 stands for the midpoint of a concentration-inhibition curve. Read a high IC50 as a need for much substance. With `COc1cc2c3cc1Oc1cccc(c1O)C[C@@H]1c4c(cc(OC)c(O)c4Oc4ccc(cc4)CC3N(C)CC2)CC[N+]1(C)C` (some centres not stated), the IC50 in experiment [1] was 4.2 µM; in [2], 2.4 µM; in experiment [3] it was 2.2 µM; in experiment [4] it was 2.3 µM and 4 µM; in [5], 0.23 µM; in experiment [6] it was 4.1 µM and 0.73 µM. Also, in experiment [10], the IC50 is 14.7 µM. Further, the Concentration in experiment [7] worked out at 3.1 µM; in experiment [8] it was 3.2 µM; in experiment [9] it was 0.21 µM; in experiment [11], 7.6 µM.

Usually EC50 stands for the concentration at which the effect is half-maximal. Read a low EC50 as greater potency. Turning to `C#Cc1cncc([C@@H]2CCCN2C)c1` [ALTINICLINE], the Rmax in experiment [12] was 49%; in experiment [13] it was 52%; in experiment [14], 49%; in experiment [15], 26%. The EC50 is more than 10 µM in experiment [16]; 3.2 µM in [17]; 3.2 µM in experiment [18]; 10 µM in experiment [19]; 0.32 µM in [20]; 2 µM in [21].

On to `CO[C@@H]1CC=C2CCN3CCC4=C(CC(=O)OC4)[C@@]23C1`, for which the IC50 in experiment [1] was 3.6 µM; in [3] it was 14 µM; in experiment [6], 43 µM and 240 µM; in [10], 98 µM. In addition, the Concentration in experiment [7] was determined as 20 µM; in [8] it was 0.11 µM; in [9], 0.01 µM; in experiment [11], 2.7 µM.

Turning to `CC(=O)OCC[N+](C)(C)C` [ACETYLCHOLINE], the Rmax was determined as 100% in [22]; 97% in experiment [23]; 150% in experiment [24]; 100% in [25]; 172% in experiment [26]. Further, the EC50 in experiment [27] amounted to 68 µM; in [28] it was 83 µM; in experiment [29], 203 µM; in experiment [30], 20 µM.

Take `C[N+]1(C)CCN(c2ccccc2)CC1` [DIMETHYLPHENYLPIPERAZINIUM]: the Rmax came out at 58% in experiment [12]; 124% in [31]; 101% in experiment [13]; 90% in experiment [14]; 19% in experiment [15]; 54% in [32]. The Rmax in experiment [33] stood at 107%; in experiment [35] it was 100%. Moreover, the EC50 in experiment [34] is 31 µM; in experiment [27], 18 µM; in experiment [28], 23 µM; in [36], 56 µM; in experiment [29] it was 19 µM; in experiment [30], 46 µM.

As to `CC[C@H](C)[C@H](N)C(=O)N[C@@H](CCCN=C(N)N)C(=O)N[C@@H](CC(=O)O)C(=O)N[C@@H](CCC(=O)O)C(=O)N[C@@H](CS)C(=O)N[C@@H](CS)C(=O)N[C@@H](CO)C(=O)N[C@@H](CC(N)=O)C(=O)N1CCC[C@H]1C(=O)N[C@@H](C)C(=O)N[C@@H](CS)C(=O)N[C@@H](CCCN=C(N)N)C(=O)N[C@H](C(=O)N[C@@H](CC(N)=O)C(=O)N[C@@H](CC(N)=O)C(=O)N1C[C@H](O)C[C@H]1C(=O)N[C@@H](Cc1c[nH]cn1)C(=O)N[C@H](C(=O)N[C@@H](CS)C(N)=O)C(C)C)C(C)C` (H-IRDECCSNPACRVNN[Hyp]HVC-NH2), the IC50 in experiment [37], in experiment [38], in [39], in experiment [40] and in experiment [41] was 0.005 µM throughout.

The values above are taken from ChEMBL document CHEMBL1145159 (J Med Chem, 2005).
